Structures can show the parent of a compound that is named as a salt.

This test addresses T1, human renal renin (Homo sapiens, UniProt P00797).
T1 construct: with human renal renin, free from acid proteolytic activity; from tissue; host or cells: human kidney (concluded from the word 'renal')
T1 sequence (P00797 67-406): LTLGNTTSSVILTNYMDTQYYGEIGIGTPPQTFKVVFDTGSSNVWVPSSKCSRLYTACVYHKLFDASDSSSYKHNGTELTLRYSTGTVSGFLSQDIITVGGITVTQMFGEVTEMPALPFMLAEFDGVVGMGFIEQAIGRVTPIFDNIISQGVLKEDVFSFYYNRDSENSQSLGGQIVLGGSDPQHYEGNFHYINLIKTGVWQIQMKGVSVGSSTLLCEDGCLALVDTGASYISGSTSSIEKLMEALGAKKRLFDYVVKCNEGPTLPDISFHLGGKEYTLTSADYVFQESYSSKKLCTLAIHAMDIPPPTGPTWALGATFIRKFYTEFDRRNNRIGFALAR
Put plainly: in vitro inhibition of human renal renin (angiotensin I formed measured by radioimmunoassay). Format: biochemical. The settings on record: human renal renin with renin substrate (human angiotensinogen), 37° C., pH 6.0.
For orientation: IC50 means the concentration that inhibits the measured activity by half. A low value points to higher potency. As for `CCOC(=O)N[C@@H](Cc1ccccc1)C(=O)N(C)[C@@H](Cc1c[nH]cn1)C(=O)N[C@@H](CC1CCCCC1)[C@@H](O)[C@@H](O)CC(C)C` [Example 39, Ethoxycarbonyl-Phe-MeHis Amide of 2(S)-Amino-1-cyclohexyl-3(R),4(S)-dihydroxy-6-methylheptane], the IC50 was 2 nM. Regarding `CC(C)C[C@H](O)[C@H](O)[C@H](CC1CCCCC1)NC(=O)[C@H](Cc1cnc[nH]1)NC(=O)[C@H](Cc1ccccc1)NC(=O)C(C)(C)CNC(=O)OCc1ccccc1` [Example 81], half-maximal inhibition (IC50) was put at 0.6 nM. With `C[C@H](NC(=O)[C@H](Cc1ccccc1)NC(=O)OC(C)(C)C)C(=O)N[C@@H](CC1CCCCC1)C(O)CO` (stereo partly drawn) [Example 3, Boc-Phe-Ala Amide of 3(S)-Amino-4-cyclohexyl-1,2(R,S)-dihydroxybutane] the figure was 4000 nM.

`CC(C)C[C@H](O)[C@H](O)[C@H](CC1CCCCC1)NC(=O)[C@H](Cc1c[nH]cn1)NC(=O)[C@H](Cc1ccccc1)NC(=O)C(C)(C)CN` [Example 82, [(α, α-Di-Me)-β-Ala]-Phe-His Amide of 2(S)-Amino-1-cyclohexyl-3(R),4(S)-dihydroxy-6-methylheptane Bis acetic acid salt] showed an IC50 of 0.6 nM.

The values are drawn from patent US4845079A, “Peptidylaminodiols” (priority 1988, dated 1989).
